Measurements as given in patent publication US20250129083A1, “IMIDAZOTETRAZINE COMPOUNDS AND TREATMENT OF TMZ-RESISTANT CANCERS” (THE BOARD OF TRUSTEES OF THE UNIVERSITY OF ILLINOIS, priority 2022, published 2025).
Read-outs that look alike come from different tables or passages of the source.

Columns and labels:
[1] = tested on: E. coli WP2 uvrA pKM101 strain; assay: Ames test, E. coli WP2 uvrA pKM101; format: cell-based; conditions: 30 μM
Protocol: Next, we measured the mutagenicity of CPZ versus TMZ. TMZ and other DNA methylating chemotherapies are known mutagens, inducing G:C→A:T mutations due to erroneous recognition of O^6-methylguanine. […] CPZ and TMZ (at 30 μM) were also assessed in the E. coli WP2 uvrA pKM101 strain, which is considered one of the more sensitive Ames tester strains available.

HCT116 cells = assay: Cell viability assay (Alamar Blue, 7 days), HCT116; format: cell-based; conditions: Homo sapiens, HCT-116, 168 h
Protocol: (§1) Cell Culture and Reagents. All cell lines were grown in a 37° C., 5% CO2, humidified environment, in media containing 1% penicillin/streptomycin. Stable cell line generation of GL261 MGMT+ was purchased from Creative Biogene. Cell culture conditions are as follows: cell lines U87, T98G, and RKO were grown in EMEM with 10% FBS. D54, GL261, GL261 MGMT+, and U118MG cell lines were grown in DMEM with 10% FBS. HCT116 cells were grown in RMPI with 10% FBS. D341 Med cells were grown in EMEM with 20% FBS. Temozolomide (TMZ) was purchased from AK Scientific. TMZ analogues were synthesized as described below. Compounds were dissolved in DMSO (1% final concentration, Fisher Chemical) for cell culture studies.
(§2) Cell Viability Assays. Cells were harvested, seeded in a 96-well plate and allowed to adhere. After three hours, compound was added to each well in DMSO (1% final concentration). Cells were incubated for seven days (unless otherwise noted) before viability was assessed by the Alamar Blue assay. Raptinal (20 μM) was used as a dead control.

[2] = tested on: genomic DNA of GL261 cells; assay: Quantitation of O6-guanine DNA adducts in cells, GL261; format: cell-based, mouse; conditions: 100, 300, or 500 μM, 8 hours; LC-MS/MS
Protocol: Importantly, because CPZ was designed to release a different active species than TMZ, the alkylation pattern in a cellular context is likely different. Therefore, to assess if alkylation still occurs with CPZ, a DNA alkylation assay was performed. GL261 cells were treated with 100, 300, or 500 μM TMZ or CPZ for 8 hours after which the cells were harvested and genomic DNA was extracted and subsequently hydrolyzed to constituent deoxyribonucleosides. LC-MS/MS analysis was employed to quantify the amount of O^6-methyl-2′-deoxyguanosine (O^6-Me-dG) or O^6-propargylated-2′-O^6-deoxyguanosine (O^6-Prop-dG) in each sample.
Quantitation of O^6-guanine DNA Adducts in Cells. GL261, A172, or D54 cells were plated at 1×10^6 c/w in a 6-well plate before they were treated with compound at the indicated concentration (1% final concentration DMSO). After incubation for the indicated time, the cells were harvested and pelleted. Genomic DNA was extracted using the DNeasy Blood & Tissue Kit (Qiagen, ID: 69504). DNA was then precipitated using the following procedure: 1/10 v/v […] sodium acetate (pH 5.2) and 2.5× v/v ethanol was added to each sample which was then kept at −80° C. for 1 h. […] Hydrolyzed samples were then submitted for LC-MS/MS quantitation along with a synthetic standard. Samples were analyzed with a 5500 QTRAP LC/MS/MS system (AB Sciex) with a 1200 series HPLC system (Agilent).

[3] = tested on: RKO colon cancer cell line; assay: Cell viability assay (Alamar Blue, 7 days), RKO; format: cell-based; conditions: 168 h
Protocol: as §1, §2

[4] = Maximum tolerated dose / tolerability in mice; format: in vivo; conditions: in vivo, 66 mg/kg, once per day over 5 days
U118MG cells = assay: Cell viability assay (Alamar Blue, 7 days), U118MG; format: cell-based; conditions: Homo sapiens, U-118-MG, 168 h, MGMT (+) MMR (+), 600 c/w, SEM, n=3
Protocol: as §1, §2
Plated 1500 c/w for GL261; 600 c/w for U87; 600 c/w for U118MG; 1500 c/w for GL261 MGMT+ Incubated ovn and added 1 μL of compound in DMSO the next day. Incubated over 7 days; added Alamar Blue to assess cell viability and used 10 μM Raptinal as dead control. Error is SEM, n=3.

[5] = Assessment of hematological toxicity; format: in vivo
Excerpt: Arguably the most important question when designing an alkylating agent able to evade MGMT-mediated resistance is the resultant effect on hematological toxicity. MGMT operates as a systemic protectant against alkylating xenobiotics. […] Therefore, an MGMT-independent alkylating agent like CPZ could render off-target cells vulnerable to irreparable DNA alkylation and result in a similar degree of toxicity. We hypothesized that the increased BBB permeability of CPZ would divert enough of the drug to the brain such that it could be tolerated at a therapeutically useful dose. The hematological effects of a single dose of TMZ or CPZ were compared head-to-head in vivo. Mice were treated with 125 mg/kg TMZ or CPZ intravenously; this dose was selected because 125 mg/kg TMZ is known to induce nonlethal toxicity in mice. After 7 days, the mice were sacrificed and complete blood counts were obtained. […] Additionally, the maximum tolerated dose (MTD) of CPZ was determined to be 66 mg/kg when dosed intraperitoneally (IP), once-per-day over five days. This matches the reported MTD of TMZ at the same schedule (˜66 mg/kg).
Assessment of Hematological Toxicity. Male CD-1 IGS mice (n≥3 mice/group) were administered a single dose of 125 mg/kg compound intravenously. Imidazotetrazines were formulated with DMSO, Tween-20, and 30% (w/v) SBE-PCD in sterile water immediately prior to injection. […]

[6] = Hydrolytic stability studies; format: physicochemical; conditions: PBS; for half-life at 100 μM: 37° C.; for Hydrolytic stability: percentage of prodrug remaining after 2 hours: pH 7.4, 37° C., HPLC
Protocol: Hydrolytic Stability Studies. Compound (100 μM) was incubated at 37° C. in PBS at pH 7.4 (unless otherwise noted). At the indicated time point, an aliquot was collected and analyzed by HPLC. Compound peaks were integrated and compared to the integration at to calculate the percentage of prodrug remaining.

[7] = MGMT (−) MMR (−), 7 days, read-out: Activity, HCT116
[8] = MGMT (−)/MMR (−), 7 day, read-out: IC50, HCT116
[9] = 7 days, read-out: Activity, RKO
[10] = MGMT (+)/MMR (−), 7 day, read-out: IC50, RKO
[11] = female, C57BL/6, mouse, ip, intraperitoneal, read-out: MTD, I.P.
[12] = pH 7.4, calculated from hydrolytic stability data, read-out: Half-life, pH 7.4

| Structure (SMILES) | Ames test revertant colonies, E. coli WP2 uvrA pKM101 [1] | Mutagenicity, E. coli WP2 uvrA pKM101 [1] | IC50 (HCT116 cells; [7]) [µM] | IC50 (HCT116 cells; [8]) [µM] | O6-alkyl-2′-deoxyguanosine adducts (O6-Me-dG for TMZ, O6-Prop-dG for CPZ), GL261 [2] | IC50 [3, 9] [µM] | IC50 [3, 10] [µM] | MTD at 5 days [4, 11] [mg/kg] | MTD at 5 days ([4]; mouse, intravenous, read-out: MTD, I.V.) [mg/kg] | IC50 (U118MG cells) [µM] | White blood cell, lymphocyte, and neutrophil counts ([5]; mice, single 125 mg/kg IV dose, 7 days) | half-life at 100 μM ([6]; pH 7, calculated from hydrolytic stability data, read-out: Half-life, pH 7) [h] | Hydrolytic stability: percentage of prodrug remaining after 2 hours [6] [%] | half-life at 100 μM [6, 12] [h] | half-life at 100 μM ([6]; pH 8, calculated from hydrolytic stability data, read-out: Half-life, pH 8) [h] | Other hematological symptoms such as thrombocytopenia ([5]; mouse, in vivo, iv, 125 mg/kg) |
| --- | --- | --- | --- | --- | --- | --- | --- | --- | --- | --- | --- | --- | --- | --- | --- | --- |
| Cn1nnc2c(C(N)=O)ncn2c1=O [TMZ, temozolomide, reference compound] | 95/96 | mutagenic | 840 ± 30 | > 800 | clear dose-dependent increase | > 1000 | > 1000 | 66 | 66 | 322 ± 7 | depletions in white blood cells, lymphocytes, and neutrophils | 2.97 ± 0.0833 | 40 | ~1.5 | 0.483 ± 0.0167 | – |
| C#CCn1nnc2c(Cl)ncn2c1=O [CPZ, 8-chloro-3-(prop-2-yn-1-yl)imidazo[5,1-d][1,2,3,5]tetrazin-4(3H)-one] | no revertant colonies | non-mutagenic | 14 ± 16 | 14 | no detection of O^6-Prop-dG adducts | 10 ± 1 | 10 | 66 | – | 17 ± 1 | – | – | 30 | 1.2 | – | did not give rise to other hematological symptoms such as thrombocytopenia |
